Legend:
[1] = biological target: SpNanA (Streptococcus pneumoniae, UniProt P62575); assay: Sialidase inhibition assay (Example 7); type: biochemical; settings: for inhibition at 1000 µM: pH 6, read-out: Percentage inhibition (%) against SpNanA; for Percentage inhibition (%) against SpNanA: 1 mM of each inhibitor, substrate Neu5Acα2-3GalβpNP 0.3 mM, pH 6.0
[2] = biological target: T1, SpNanB (Streptococcus pneumoniae serotype 4, UniProt Q54727, E68D/K536E/K577E/N393D/S59P); assay: Sialidase inhibition assay (Example 7); type: biochemical; settings: for inhibition at 1000 µM: pH 6, read-out: Percentage inhibition (%) against SpNanB; for Percentage inhibition (%) against SpNanB: 1 mM of each inhibitor, substrate Neu5Acα2-3GalβpNP 0.3 mM, pH 6.0
[3] = biological target: T2, AuSialidase (Paenarthrobacter ureafaciens, UniProt Q5W7Q2); assay: Sialidase inhibition assay (Example 7); type: biochemical, Arthrobacter ureafaciens; settings: for inhibition at 1000 µM: read-out: Percentage inhibition (%) against AuSialidase
T2 sequence (Q5W7Q2 39-990): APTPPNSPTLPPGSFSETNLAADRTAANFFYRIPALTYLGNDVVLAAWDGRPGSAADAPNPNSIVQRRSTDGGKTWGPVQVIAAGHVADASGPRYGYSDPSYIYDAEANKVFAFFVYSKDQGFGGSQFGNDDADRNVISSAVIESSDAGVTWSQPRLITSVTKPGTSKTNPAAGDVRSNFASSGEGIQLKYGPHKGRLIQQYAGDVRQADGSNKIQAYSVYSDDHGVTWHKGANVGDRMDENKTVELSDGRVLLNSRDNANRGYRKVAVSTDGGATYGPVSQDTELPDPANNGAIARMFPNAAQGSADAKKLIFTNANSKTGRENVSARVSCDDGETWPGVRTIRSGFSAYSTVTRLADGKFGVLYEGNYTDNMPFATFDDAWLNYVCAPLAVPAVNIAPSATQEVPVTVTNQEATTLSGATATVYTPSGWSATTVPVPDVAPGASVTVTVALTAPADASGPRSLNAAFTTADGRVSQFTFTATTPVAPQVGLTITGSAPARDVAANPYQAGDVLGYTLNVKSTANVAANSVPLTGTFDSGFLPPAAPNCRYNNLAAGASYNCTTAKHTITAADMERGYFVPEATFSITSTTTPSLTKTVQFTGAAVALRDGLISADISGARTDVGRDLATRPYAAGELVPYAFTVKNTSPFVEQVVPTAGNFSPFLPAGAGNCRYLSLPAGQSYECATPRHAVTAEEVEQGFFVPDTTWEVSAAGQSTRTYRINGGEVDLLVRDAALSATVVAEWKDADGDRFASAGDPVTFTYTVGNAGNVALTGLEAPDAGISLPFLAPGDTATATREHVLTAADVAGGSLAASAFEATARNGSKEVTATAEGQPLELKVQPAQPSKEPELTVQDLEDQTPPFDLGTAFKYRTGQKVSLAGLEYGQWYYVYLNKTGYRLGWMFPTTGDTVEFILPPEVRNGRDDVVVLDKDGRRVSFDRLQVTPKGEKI

[4] = tested on: CpNanI; type: biochemical, Clostridium perfringens; settings: 1 mM of each inhibitor; substrate Neu5Acα2-3GalβpNP 0.3 mM; pH 5.0
[5] = biological target: VcSialidase (Vibrio cholerae serotype O1, UniProt P0C6E9); assay: Sialidase inhibition assay (Example 7); type: biochemical; settings: for inhibition at 1000 µM: pH 5.5, read-out: Percentage inhibition (%) against VcSialidase
[6] = biological target: T3, PmST1 (Pasteurella multocida, UniProt Q15KI8); assay: Sialidase inhibition assay (Example 7); type: biochemical; settings: 1 mM of each inhibitor; substrate Neu5Acα2-3GalβpNP 0.3 mM; CMP 0.4 mM; pH 5.5; read-out: Percentage inhibition (%) against PmST1
[7] = biological target: T4, BiNanH2 (Bifidobacterium longum subsp. infantis, UniProt A0ACD7UU12); assay: Sialidase inhibition assay (Example 7); type: biochemical; settings: pH 5, read-out: Percentage inhibition (%) against BiNanH2
[8] = biological target: hNEU2 (Homo sapiens, UniProt Q9Y3R4); assay: Sialidase inhibition assay (Example 7); type: biochemical; settings: 1 mM of each inhibitor; substrate Neu5Acα2-3GalβpNP 0.3 mM; pH 5.0; read-out: Percentage inhibition (%) against hNEU2
[9] = biological target: T5, SpNanC (Streptococcus pneumoniae, UniProt A0A0H2UQE4); assay: Sialidase inhibition assay (Example 7); settings: for inhibition at 1000 µM: pH 6.5, read-out: Percentage inhibition (%) against SpNanC
[10] = biological target: T1, SpNanB; assay: Hydrolysis of 2,7-anhydro-sialic acids by SpNanB; settings: SpNanB (1.0 mg/mL); 37° C. for 24 h
[11] = biological target: T5, SpNanC; settings: Tris-HCl pH 7.0, 10 min at 37° C.
[12] = biological target: T1, SpNanB; assay: Substrate specificity of SpNanB; settings: pNP-tagged α2-3-linked sialosides
[13] = tested on: SpNanC; assay: Substrate specificity assay of SpNanC; settings: sialoside substrate 0.3 mM; SpNanC (2 μg); Tris-HCl pH 7.0; 30 min, 37° C.
[14] = biological target: T1, SpNanB; assay: Sialidase inhibition assay (Example 4); type: biochemical; settings: pH 6, read-out: Percentage inhibition (%) against SpNanB
[15] = biological target: T5, SpNanC; assay: Sialidase inhibition assay (Example 4); type: biochemical; settings: pH 6.5, read-out: Percentage inhibition (%) against SpNanC
[16] = biological target: CpNanH (Clostridium perfringens, UniProt P10481); assay: biochemical; settings: pH 5.0; read-out: Percentage inhibition (%) against CpNanH
[17] = biological target: T3, PmST1; assay: Sialidase inhibition assay (Example 4); type: biochemical; settings: 0.1 mM of each inhibitor; substrate Neu5Acα2-3GalβpNP 0.3 mM; pH 5.5; read-out: Percentage inhibition (%) against PmST1
Procedure: The assay conditions varied for different sialidases as described below: SpNanA (0.0015 μg), NaOAc buffer (100 mM, pH 6.0); SpNanB (0.003 μg), NaOAc buffer (100 mM, pH 6.0); SpNanC (0.02 μg), MES buffer (100 mM, pH 6.5); AuSialidase (1.0 mU), NaOAc buffer (100 mM, pH 5.5); CpNanI (2.0 mU), MES buffer (100 mM, pH 5.0); CpNanH (0.5 mU), MES buffer (100 mM, pH 5.0); VcSialidase (1.5 mU), NaCl (150 mM), CaCl2) (10 mM), NaOAc buffer (100 mM, pH 5.5); PmST1 (34.4 μg), NaOAc buffer (100 mM, pH 5.5); BiNanH2, NaOAc buffer (100 mM, pH 5.0); hNEU2 (22.0 μg), MES buffer (100 mM, pH 5.0). The reactions were incubated for 30 min at 37° C., and were stopped by adding CAPS buffer (N-cyclohexyl-3-aminopropane sulfonic acid, 40 μL, 0.5 M, pH 10.5). The amount of the para-nitrophenolate formed was determined by measuring the A405 nm Of the reaction mixtures using a microplate reader.
The percentage inhibitions were determined using a concentration of 0.1 mM of each inhibitor, with reactions without inhibitors as controls. […] The values of IC50 were calculated by the software Grafit 5.0.

[18] = biological target: T4, BiNanH2; assay: Sialidase inhibition assay (Example 4); type: biochemical; settings: pH 5, read-out: Percentage inhibition (%) against BiNanH2, 0.1 mM of each inhibitor, substrate Neu5Acα2-3GalβpNP 0.3 mM
[19] = tested on: SpNanC; settings: previously reported recombinant SpNanC; cited from earlier work
[20] = 1 mM of each inhibitor, substrate Neu5Acα2-3GalβpNP 0.3 mM, pH 5.5

Sequence of SpNanA (P62575 54-1006): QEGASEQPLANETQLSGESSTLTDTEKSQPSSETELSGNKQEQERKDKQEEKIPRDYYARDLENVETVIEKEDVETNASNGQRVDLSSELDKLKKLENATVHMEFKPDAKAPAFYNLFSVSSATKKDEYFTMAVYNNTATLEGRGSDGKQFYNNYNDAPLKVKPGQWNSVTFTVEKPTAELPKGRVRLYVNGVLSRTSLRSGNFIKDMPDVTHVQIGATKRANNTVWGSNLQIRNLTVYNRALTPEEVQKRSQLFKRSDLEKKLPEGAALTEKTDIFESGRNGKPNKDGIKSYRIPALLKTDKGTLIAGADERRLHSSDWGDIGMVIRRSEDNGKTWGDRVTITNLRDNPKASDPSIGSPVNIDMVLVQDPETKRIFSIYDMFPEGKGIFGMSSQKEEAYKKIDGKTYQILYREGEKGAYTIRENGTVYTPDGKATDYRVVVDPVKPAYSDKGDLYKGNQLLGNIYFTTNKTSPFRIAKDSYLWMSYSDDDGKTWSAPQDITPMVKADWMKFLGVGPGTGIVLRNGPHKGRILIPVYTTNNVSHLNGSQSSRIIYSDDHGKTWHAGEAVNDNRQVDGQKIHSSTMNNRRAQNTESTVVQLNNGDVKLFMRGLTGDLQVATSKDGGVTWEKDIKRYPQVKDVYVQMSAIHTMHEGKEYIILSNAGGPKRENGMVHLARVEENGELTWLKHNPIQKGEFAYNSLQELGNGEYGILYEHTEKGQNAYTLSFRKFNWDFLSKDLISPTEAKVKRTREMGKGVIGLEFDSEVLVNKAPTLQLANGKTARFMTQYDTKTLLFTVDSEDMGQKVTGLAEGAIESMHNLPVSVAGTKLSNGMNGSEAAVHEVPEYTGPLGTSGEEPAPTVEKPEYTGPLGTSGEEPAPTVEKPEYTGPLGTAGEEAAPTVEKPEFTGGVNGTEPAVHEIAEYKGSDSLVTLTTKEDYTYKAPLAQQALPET
T4 sequence (A0ACD7UU12 entry or part of it): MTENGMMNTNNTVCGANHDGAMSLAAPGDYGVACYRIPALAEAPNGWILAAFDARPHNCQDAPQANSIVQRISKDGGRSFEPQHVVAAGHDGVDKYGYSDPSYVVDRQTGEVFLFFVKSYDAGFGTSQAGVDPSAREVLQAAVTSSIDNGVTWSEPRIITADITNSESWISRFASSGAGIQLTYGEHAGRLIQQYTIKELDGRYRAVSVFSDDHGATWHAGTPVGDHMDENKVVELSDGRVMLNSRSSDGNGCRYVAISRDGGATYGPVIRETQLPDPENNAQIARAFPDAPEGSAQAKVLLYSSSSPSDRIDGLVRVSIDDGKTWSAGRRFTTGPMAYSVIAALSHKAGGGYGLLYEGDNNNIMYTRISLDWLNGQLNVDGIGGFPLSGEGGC
T5 sequence (A0A0H2UQE4 entry or part of it): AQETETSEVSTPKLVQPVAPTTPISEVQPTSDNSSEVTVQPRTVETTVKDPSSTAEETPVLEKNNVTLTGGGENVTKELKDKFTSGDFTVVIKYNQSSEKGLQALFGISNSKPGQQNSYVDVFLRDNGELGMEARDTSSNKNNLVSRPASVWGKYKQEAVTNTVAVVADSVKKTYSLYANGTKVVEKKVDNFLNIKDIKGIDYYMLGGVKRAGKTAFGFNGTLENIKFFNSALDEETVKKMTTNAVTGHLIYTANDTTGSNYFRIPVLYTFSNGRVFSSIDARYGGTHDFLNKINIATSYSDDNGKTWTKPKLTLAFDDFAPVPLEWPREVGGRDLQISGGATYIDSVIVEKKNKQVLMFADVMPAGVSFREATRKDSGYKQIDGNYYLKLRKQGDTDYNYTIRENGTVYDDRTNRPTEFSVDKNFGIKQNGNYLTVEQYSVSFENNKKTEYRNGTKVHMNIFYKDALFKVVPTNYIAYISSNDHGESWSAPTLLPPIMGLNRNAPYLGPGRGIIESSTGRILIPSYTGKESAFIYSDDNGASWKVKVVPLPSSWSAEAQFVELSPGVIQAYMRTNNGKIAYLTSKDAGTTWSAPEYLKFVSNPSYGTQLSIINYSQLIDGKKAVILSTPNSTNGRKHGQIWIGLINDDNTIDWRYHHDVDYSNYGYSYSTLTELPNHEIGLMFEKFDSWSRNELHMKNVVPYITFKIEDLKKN
T1 sequence (Q54727 30-697 S59P/E68D/N393D/K536E/K577E): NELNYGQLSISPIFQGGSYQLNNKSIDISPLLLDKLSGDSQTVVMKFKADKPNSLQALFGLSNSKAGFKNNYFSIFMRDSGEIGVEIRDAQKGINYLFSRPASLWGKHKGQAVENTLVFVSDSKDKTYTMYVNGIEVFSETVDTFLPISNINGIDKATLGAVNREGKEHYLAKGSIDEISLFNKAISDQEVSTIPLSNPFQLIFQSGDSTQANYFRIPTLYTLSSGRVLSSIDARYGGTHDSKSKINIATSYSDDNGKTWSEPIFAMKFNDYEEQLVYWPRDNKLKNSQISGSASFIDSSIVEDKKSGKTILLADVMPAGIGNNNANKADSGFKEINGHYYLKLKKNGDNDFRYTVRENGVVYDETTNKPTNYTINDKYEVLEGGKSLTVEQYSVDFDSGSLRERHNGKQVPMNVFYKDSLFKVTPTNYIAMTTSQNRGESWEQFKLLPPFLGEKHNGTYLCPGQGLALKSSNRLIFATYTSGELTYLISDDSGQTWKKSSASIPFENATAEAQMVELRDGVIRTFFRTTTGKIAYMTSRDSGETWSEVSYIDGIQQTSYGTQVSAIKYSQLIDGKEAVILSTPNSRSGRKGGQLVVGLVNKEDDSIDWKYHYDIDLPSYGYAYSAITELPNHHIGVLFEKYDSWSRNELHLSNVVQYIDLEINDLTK
T3 sequence (Q15KI8 entry or part of it): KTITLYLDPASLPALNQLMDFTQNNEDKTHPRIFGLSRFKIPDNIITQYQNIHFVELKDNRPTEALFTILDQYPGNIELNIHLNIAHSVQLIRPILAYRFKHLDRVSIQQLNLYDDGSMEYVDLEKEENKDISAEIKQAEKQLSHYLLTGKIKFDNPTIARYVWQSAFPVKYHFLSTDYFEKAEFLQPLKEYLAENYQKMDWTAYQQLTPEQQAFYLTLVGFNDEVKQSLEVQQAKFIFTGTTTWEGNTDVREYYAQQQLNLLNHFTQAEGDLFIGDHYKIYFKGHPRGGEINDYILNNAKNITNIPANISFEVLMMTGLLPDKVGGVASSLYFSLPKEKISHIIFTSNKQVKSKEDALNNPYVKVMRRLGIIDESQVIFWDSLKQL
Sequence of VcSialidase (P0C6E9 25-781): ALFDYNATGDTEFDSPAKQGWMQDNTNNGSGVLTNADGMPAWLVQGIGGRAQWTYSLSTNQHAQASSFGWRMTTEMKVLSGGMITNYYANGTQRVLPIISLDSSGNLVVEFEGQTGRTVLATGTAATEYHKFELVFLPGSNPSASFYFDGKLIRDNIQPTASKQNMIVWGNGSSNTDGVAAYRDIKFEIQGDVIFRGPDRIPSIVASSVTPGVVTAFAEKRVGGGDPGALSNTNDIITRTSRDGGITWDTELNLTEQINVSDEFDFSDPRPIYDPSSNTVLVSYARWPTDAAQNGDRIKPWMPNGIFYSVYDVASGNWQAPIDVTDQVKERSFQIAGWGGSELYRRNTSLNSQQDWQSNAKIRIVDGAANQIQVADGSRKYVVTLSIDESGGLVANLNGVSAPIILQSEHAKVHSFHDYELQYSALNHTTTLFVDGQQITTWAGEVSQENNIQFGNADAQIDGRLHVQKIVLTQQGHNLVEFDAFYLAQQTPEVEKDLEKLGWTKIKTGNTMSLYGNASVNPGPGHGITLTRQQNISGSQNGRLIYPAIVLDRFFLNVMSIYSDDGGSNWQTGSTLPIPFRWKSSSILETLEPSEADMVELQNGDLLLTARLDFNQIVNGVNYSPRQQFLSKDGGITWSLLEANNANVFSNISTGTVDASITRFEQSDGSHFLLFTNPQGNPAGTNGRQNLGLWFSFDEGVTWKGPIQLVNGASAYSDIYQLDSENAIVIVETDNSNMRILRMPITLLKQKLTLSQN
Sequence of hNEU2 (Q9Y3R4 whole entry): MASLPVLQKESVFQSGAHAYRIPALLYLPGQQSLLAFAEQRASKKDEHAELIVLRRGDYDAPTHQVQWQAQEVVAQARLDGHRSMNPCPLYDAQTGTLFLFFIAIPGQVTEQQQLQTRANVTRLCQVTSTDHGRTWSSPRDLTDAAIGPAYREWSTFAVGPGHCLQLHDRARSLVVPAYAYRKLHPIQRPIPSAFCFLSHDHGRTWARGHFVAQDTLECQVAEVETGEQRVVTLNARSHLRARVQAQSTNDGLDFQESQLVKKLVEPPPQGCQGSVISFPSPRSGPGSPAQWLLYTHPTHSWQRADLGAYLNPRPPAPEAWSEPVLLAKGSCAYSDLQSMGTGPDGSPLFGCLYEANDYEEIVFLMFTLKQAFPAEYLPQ
Sequence of CpNanH (P10481 whole entry, looked up): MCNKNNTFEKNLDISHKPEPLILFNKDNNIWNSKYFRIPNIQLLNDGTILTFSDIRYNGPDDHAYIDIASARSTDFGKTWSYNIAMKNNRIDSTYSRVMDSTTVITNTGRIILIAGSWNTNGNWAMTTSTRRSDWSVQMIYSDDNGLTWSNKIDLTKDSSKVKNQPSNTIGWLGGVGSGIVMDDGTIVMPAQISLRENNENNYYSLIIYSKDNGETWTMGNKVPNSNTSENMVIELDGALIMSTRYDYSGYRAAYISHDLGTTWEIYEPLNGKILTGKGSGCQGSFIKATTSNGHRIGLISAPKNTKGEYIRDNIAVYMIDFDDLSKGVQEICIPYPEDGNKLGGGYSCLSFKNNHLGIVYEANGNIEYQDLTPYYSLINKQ

Row | Compound | inhibition at 1000 µM [1] | inhibition at 1000 µM [2] | inhibition at 1000 µM [3, 20] | Percentage inhibition (%) against CpNanI [4] | inhibition at 1000 µM [5] | inhibition at 1000 µM [6] | inhibition at 1000 µM [7] | inhibition at 1000 µM [8] | inhibition at 1000 µM [9] | other results
1 | CC(=O)N[C@H]1[C@H]2O[C@@](C(=O)O)(C[C@@H]1O)O[C@@H]2[C@H](O)CO [2-1, 5-Acetamido-2,7-anhydro-3,5-dideoxy-α-D-glycero-D-galacto-non-2-ulopyranosonic acid] | 36.4 ± 0.1% | 30 ± 1.7% | 49.4 ± 1.3% | 26.7 ± 3.7% | 22.7 ± 1.2% | 10.2 ± 2.8% | 6.6 ± 1.8% | 4.6 ± 1.1% | 3 ± 1.9% | Conversion to Neu5Ac by SpNanB, estimated yield based on TLC [10]: 80%
2 | O=C(N[C@H]1[C@H]2O[C@@](C(=O)O)(C[C@@H]1O)O[C@@H]2[C@H](O)CO)C(F)(F)F [2-2, 2,7-Anhydro-3,5-dideoxy-5-trifluoroacetamido-α-D-glycero-D-galacto-non-2-ulopyranosonic acid] | 83.8 ± 0.3% | 68.2 ± 2.6% | 85.1 ± 0.3% | 44.1 ± 1.0% | 62.1 ± 0.6% | 11 ± 2.7% | 3.8 ± 2.6% | 2.5 ± 2.1% | 4.4 ± 2% | Percentage inhibition (%) against SpNanA [1]: moderate inhibitory activity; IC50 [2]: 250 to 500 µM; Percentage inhibition (%) against SpNanB [2]: weak inhibition; Percentage inhibition (%) against AuSialidase [3, 20]: moderate inhibitory activity; IC50 ([3]; read-out: IC50 against AuSialidase): 225 ± 34 µM; IC50 [5]: 500 to 1000 µM; Percentage inhibition (%) against VcSialidase [5, 20]: weak inhibition
3 | N[C@H]1[C@H]2O[C@@](C(=O)O)(C[C@@H]1O)O[C@@H]2[C@H](O)CO [2-3, 5-Amino-2,7-anhydro-3,5-dideoxy-α-D-glycero-D-galacto-non-2-ulopyranosonic acid] | 19.3 ± 4.2% | 11.7 ± 2.6% | 1.3 ± 2.2% | 10.1 ± 5.7% | 1.3 ± 2% | 13.8 ± 3.3% | 3.2 ± 3.2% | 1.4 ± 2.4% | 14.9 ± 3% | –
4 | O=C(O)[C@@]12C[C@@H](O)[C@@H](NC3CCCCC3)C(O1)[C@@H]([C@H](O)CO)O2 [2-4] | 61.2 ± 0.6% | 86.6 ± 0.3% | 16.8 ± 2.4% | 13.6 ± 0.1% | 1.2 ± 0.7% | 12.3 ± 1.9% | 1.2 ± 0.9% | 3.6 ± 0.1% | 94.2 ± 0.1% | IC50 [1]: 500 to 1000 µM; Percentage inhibition (%) against SpNanA [1]: weak inhibition; IC50 [2]: 180 ± 23 µM; Percentage inhibition (%) against SpNanB [2]: effective inhibitory activity; IC50 [5]: > 1000 µM; Percentage inhibition (%) against SpNanC ([9]; 1 mM of each inhibitor, substrate Neu5Acα2-3GalβpNP 0.3 mM, pH 6.5): showed inhibition
5 | CC(=O)N[C@H]1[C@H]([C@H](O)[C@H](O)CO)OC(O[C@H]2[C@@H](O)[C@@H](CO)O[C@@H](Oc3ccc([N+](=O)[O-])cc3)[C@@H]2O)(C(=O)O)C[C@@H]1O (stereo partly drawn) [Neu5Acα2-3GalβpNP] | – | – | – | – | – | – | – | – | – | Km [11]: 2700 ± 500 µM; kcat [11]: 406.8 ± 39.0 s⁻¹; Recognition by SpNanB (substrate specificity) [12]: + (+ represents >80% conversion); Percentage conversion (%) by SpNanC [13]: 85.1 ± 2.4%
6 | CC(=O)N[C@H]1[C@H]([C@H](O)[C@H](O)CO)OC(C(=O)O)=C[C@@H]1O [compound 6, 5-Acetamido-2,6-anhydro-3,5-dideoxy-D-glycero-D-galacto-non-2-enonic acid, reference compound] | 98.9 ± 1.8% | 26.1 ± 1% | 99.6 ± 0.6% | 93.3 ± 3.8% | 98.8 ± 0.1% | 15.8 ± 0.1% | 95.3 ± 0.2% | – | 9 ± 3.5% | inhibition at 100 µM [14]: 4%; inhibition at 100 µM [15]: 11%; inhibition at 100 µM [16]: 2%; inhibition at 100 µM [17]: 2%; inhibition at 100 µM [18]: > 50%
7 | CC(=O)N[C@H]1[C@H]([C@H](O)[C@H](O)CO)O[C@@](O[C@H]2[C@@H](O)[C@@H](CO)O[C@@H](O[C@H]3[C@H](O)[C@@H](O)C(O)O[C@@H]3CO)[C@@H]2O)(C(=O)O)C[C@@H]1O (stereo partly drawn) [α2-3-sialyllactose] | – | – | – | – | – | – | – | – | – | Km [19]: 1080 ± 350 µM; kcat [19]: 0.313 ± 0.052 s⁻¹

— patent publication US11325936B2, “Sialidase inhibitors and preparation thereof” (The Regents of the University of California, priority 2017, dated 2022)
